In the supplement of paper PMC10307832:

Columns and labels:
Assay in all cases: relative viability (nuclei count vs DMSO), 5 days (fraction); higher = more cells survive
NCI-H1792 = test system: NCI-H1792
Method in brief: (§1)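 Relative viability was taken as the ratio of nuclei in treated wells to nuclei in vehicle wells. Lung cancer cell lines in 1536-well plates received compounds by pin tool one day after seeding, either one drug alone or a fixed anchor-drug dose plus five library-drug doses (not always all listed) in √10 steps. Nuclei were counted on 4× images after 5 days of treatment, and values are medians of duplicate plates.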

NCI-H596 = test system: NCI-H596
Method in brief: as §1

HARA = test system: HARA
Method in brief: as §1

HCC-366 = test system: HCC-366
Method in brief: as §1

NCI-H1734 = test system: NCI-H1734
Method in brief: as §1

NCI-H2170 = test system: NCI-H2170
Method in brief: as §1

NCI-H1395 = test system: NCI-H1395
Method in brief: as §1

NCI-H2342 = test system: NCI-H2342
Method in brief: as §1

HCC-827 = test system: HCC-827
Method in brief: as §1

NCI-H2405 = test system: NCI-H2405
Method in brief: as §1

LOU-NH91 = test system: LOU-NH91
Method in brief: as §1

NCI-H1437 = test system: NCI-H1437
Method in brief: as §1

BEN = test system: BEN
Method in brief: as §1

HCC-44 = test system: HCC-44
Method in brief: as §1

NCI-H647 = test system: NCI-H647
Method in brief: as §1

LC-2-ad = test system: LC-2-ad
Method in brief: as §1

NCI-H2087 = test system: NCI-H2087
Method in brief: as §1

EKVX = test system: EKVX
Method in brief: as §1

NCI-H1355 = test system: NCI-H1355
Method in brief: as §1

## C[C@@H]1CN(CC(=O)Nc2ccc3c(c2)Cc2cccc(-c4cc(=O)cc(N5CCOCC5)o4)c2S3)C[C@H](C)O1 + NC(=O)Nc1cc(-c2cccc(F)c2)sc1C(=O)N[C@H]1CCCNC1 [AZD7762] (partner 0.2 µM)
NCI-H1792; first compound 0.04 µM
  relative viability: 0.662
NCI-H1792; first compound 0.1265 µM
  relative viability: 0.638
NCI-H1792; first compound 0.4 µM
  relative viability: 0.564
NCI-H1792; first compound 4 µM
  relative viability: 0.314
NCI-H596; first compound 0.04 µM
  relative viability: 1.12
NCI-H596; first compound 0.1265 µM
  relative viability: 1.1
NCI-H596; first compound 0.4 µM
  relative viability: 1.1
NCI-H596; first compound 4 µM
  relative viability: 1.06
HARA; first compound 0.04 µM
  relative viability: 0.296
HARA; first compound 0.1265 µM
  relative viability: 0.259
HARA; first compound 0.4 µM
  relative viability: 0.227
HARA; first compound 4 µM
  relative viability: 0.329
HCC-366; first compound 0.04 µM
  relative viability: 0.247
HCC-366; first compound 0.1265 µM
  relative viability: 0.253
HCC-366; first compound 0.4 µM
  relative viability: 0.163
HCC-366; first compound 4 µM
  relative viability: 0.184
NCI-H1734; first compound 0.04 µM
  relative viability: 0.569
NCI-H1734; first compound 0.1265 µM
  relative viability: 0.684
NCI-H1734; first compound 0.4 µM
  relative viability: 0.643
NCI-H1734; first compound 4 µM
  relative viability: 0.634
NCI-H2170; first compound 0.04 µM
  relative viability: 0.95
NCI-H2170; first compound 0.1265 µM
  relative viability: 0.807
NCI-H2170; first compound 0.4 µM
  relative viability: 0.812
NCI-H2170; first compound 4 µM
  relative viability: 0.633
NCI-H1395; first compound 0.1265 µM
  relative viability: 0.425
NCI-H1395; first compound 0.4 µM
  relative viability: 0.411
NCI-H1395; first compound 4 µM
  relative viability: 0.406
NCI-H2342; first compound 0.04 µM
  relative viability: 0.499
NCI-H2342; first compound 0.1265 µM
  relative viability: 0.495
NCI-H2342; first compound 0.4 µM
  relative viability: 0.492
NCI-H2342; first compound 4 µM
  relative viability: 0.441
HCC-827; first compound 0.04 µM
  relative viability: 0.205
HCC-827; first compound 0.1265 µM
  relative viability: 0.188
HCC-827; first compound 0.4 µM
  relative viability: 0.201
HCC-827; first compound 4 µM
  relative viability: 0.161
NCI-H2405; first compound 0.04 µM
  relative viability: 0.703
NCI-H2405; first compound 0.1265 µM
  relative viability: 0.795
NCI-H2405; first compound 0.4 µM
  relative viability: 0.792
NCI-H2405; first compound 4 µM
  relative viability: 0.676
LOU-NH91; first compound 0.04 µM
  relative viability: 0.639
LOU-NH91; first compound 0.1265 µM
  relative viability: 0.775
LOU-NH91; first compound 0.4 µM
  relative viability: 0.65
LOU-NH91; first compound 4 µM
  relative viability: 0.706
NCI-H1437; first compound 0.04 µM
  relative viability: 1.08
NCI-H1437; first compound 0.1265 µM
  relative viability: 1.09
NCI-H1437; first compound 0.4 µM
  relative viability: 1.12
NCI-H1437; first compound 4 µM
  relative viability: 0.95
BEN; first compound 0.04 µM
  relative viability: 0.612
BEN; first compound 0.1265 µM
  relative viability: 0.566
BEN; first compound 0.4 µM
  relative viability: 0.625
BEN; first compound 4 µM
  relative viability: 0.645
HCC-44; first compound 0.04 µM
  relative viability: 0.945
HCC-44; first compound 0.1265 µM
  relative viability: 1.01
HCC-44; first compound 0.4 µM
  relative viability: 1
HCC-44; first compound 4 µM
  relative viability: 0.913
NCI-H647; first compound 0.04 µM
  relative viability: 0.346
NCI-H647; first compound 0.1265 µM
  relative viability: 0.46
NCI-H647; first compound 0.4 µM
  relative viability: 0.515
NCI-H647; first compound 4 µM
  relative viability: 0.309
LC-2-ad; first compound 0.04 µM
  relative viability: 0.838
LC-2-ad; first compound 0.1265 µM
  relative viability: 0.758
LC-2-ad; first compound 0.4 µM
  relative viability: 0.86
LC-2-ad; first compound 4 µM
  relative viability: 0.807
NCI-H2087; first compound 0.04 µM
  relative viability: 1.26
NCI-H2087; first compound 0.1265 µM
  relative viability: 1.17
NCI-H2087; first compound 0.4 µM
  relative viability: 1.46
NCI-H2087; first compound 4 µM
  relative viability: 0.954
EKVX; first compound 0.04 µM
  relative viability: 0.651
EKVX; first compound 0.1265 µM
  relative viability: 0.751
EKVX; first compound 0.4 µM
  relative viability: 0.713
EKVX; first compound 4 µM
  relative viability: 0.562
NCI-H1355; first compound 0.04 µM
  relative viability: 0.799
NCI-H1355; first compound 0.1265 µM
  relative viability: 0.682
NCI-H1355; first compound 0.4 µM
  relative viability: 0.671
NCI-H1355; first compound 4 µM
  relative viability: 0.62

## CC(C)Oc1cc(Nc2nc(N[C@@H](C)c3ccc(F)cn3)ncc2Cl)n[nH]1 [AZ23] + NC(=O)Nc1cc(-c2cccc(F)c2)sc1C(=O)N[C@H]1CCCNC1 [AZD7762] (partner 0.2 µM)
NCI-H1792; first compound 0.01 µM
  relative viability: 0.595
NCI-H1792; first compound 0.03162 µM
  relative viability: 0.515
NCI-H1792; first compound 0.3162 µM
  relative viability: 0.904
NCI-H596; first compound 0.01 µM
  relative viability: 1.02
NCI-H596; first compound 0.03162 µM
  relative viability: 1.04
NCI-H596; first compound 0.3162 µM
  relative viability: 1.03
HARA; first compound 0.01 µM
  relative viability: 0.252
HARA; first compound 0.03162 µM
  relative viability: 0.485
HARA; first compound 0.3162 µM
  relative viability: 0.534
HCC-366; first compound 0.01 µM
  relative viability: 0.239
HCC-366; first compound 0.03162 µM
  relative viability: 0.423
HCC-366; first compound 0.3162 µM
  relative viability: 0.496
NCI-H1734; first compound 0.01 µM
  relative viability: 0.602
NCI-H1734; first compound 0.03162 µM
  relative viability: 0.688
NCI-H1734; first compound 0.3162 µM
  relative viability: 0.795
NCI-H2170; first compound 0.01 µM
  relative viability: 0.885
NCI-H2170; first compound 0.03162 µM
  relative viability: 0.887
NCI-H2170; first compound 0.3162 µM
  relative viability: 1.06
NCI-H1395; first compound 0.03162 µM
  relative viability: 0.375
NCI-H1395; first compound 0.3162 µM
  relative viability: 0.432
NCI-H2342; first compound 0.01 µM
  relative viability: 0.442
NCI-H2342; first compound 0.03162 µM
  relative viability: 0.569
NCI-H2342; first compound 0.3162 µM
  relative viability: 0.483
HCC-827; first compound 0.01 µM
  relative viability: 0.147
HCC-827; first compound 0.03162 µM
  relative viability: 0.223
HCC-827; first compound 0.3162 µM
  relative viability: 0.212
NCI-H2405; first compound 0.01 µM
  relative viability: 0.538
NCI-H2405; first compound 0.03162 µM
  relative viability: 0.864
NCI-H2405; first compound 0.3162 µM
  relative viability: 0.843
LOU-NH91; first compound 0.01 µM
  relative viability: 0.777
LOU-NH91; first compound 0.03162 µM
  relative viability: 0.853
LOU-NH91; first compound 0.3162 µM
  relative viability: 0.803
NCI-H1437; first compound 0.01 µM
  relative viability: 1.17
NCI-H1437; first compound 0.03162 µM
  relative viability: 1.18
NCI-H1437; first compound 0.3162 µM
  relative viability: 1.19
BEN; first compound 0.01 µM
  relative viability: 0.659
BEN; first compound 0.03162 µM
  relative viability: 0.759
BEN; first compound 0.3162 µM
  relative viability: 0.746
HCC-44; first compound 0.01 µM
  relative viability: 1.06
HCC-44; first compound 0.03162 µM
  relative viability: 1.01
HCC-44; first compound 0.3162 µM
  relative viability: 1.04
NCI-H647; first compound 0.01 µM
  relative viability: 0.296
NCI-H647; first compound 0.03162 µM
  relative viability: 0.615
NCI-H647; first compound 0.3162 µM
  relative viability: 0.806
LC-2-ad; first compound 0.01 µM
  relative viability: 1.04
LC-2-ad; first compound 0.03162 µM
  relative viability: 1.05
LC-2-ad; first compound 0.3162 µM
  relative viability: 1.02
NCI-H2087; first compound 0.01 µM
  relative viability: 1.6
NCI-H2087; first compound 0.03162 µM
  relative viability: 1.41
NCI-H2087; first compound 0.3162 µM
  relative viability: 1.32
EKVX; first compound 0.01 µM
  relative viability: 0.625
EKVX; first compound 0.03162 µM
  relative viability: 0.837
EKVX; first compound 0.3162 µM
  relative viability: 0.676
NCI-H1355; first compound 0.01 µM
  relative viability: 0.711
NCI-H1355; first compound 0.03162 µM
  relative viability: 0.808
NCI-H1355; first compound 0.3162 µM
  relative viability: 0.916
